SMILES strings stand for the structures.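 Method: 48-hour compound exposure of cells in 96-well plates, five concentrations, linear interpolation of endpoints. GI50 marks 50% less growth.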 Calls of active or inactive are those of the source. Cut-off read from the data, not from the text of the source: active = GI50 up to about 1.1 µM and inactive = higher. Where a SMILES comes first, the peptide text is derived from it. [ ]: non-standard residue; d: D form. The star is where a group is joined. ξ: configuration not given here. Propanoyl(3-(4-MeO-Ph)) = COc1ccc(CCC(=O)*)cc1; Thr(3ξ) = CC(O)[C@H](N)C(=O)O; dNMeL = CN[C@H](CC(C)C)C(=O)O; Boc = CC(C)(C)OC(=O)*; OBn = c1ccc(CO*)cc1; ξLac = CC(O)C(=O)O

Test systems include 786-0; CAKI-1; COLO 205; EKVX; HCC 2998; HCT-15; M14; MDA-MB-435; MOLT-4; Malme-3M; NCI-H23; NCI-H460; OVCAR-4; SF-295; SF-539; SK-MEL-2; SK-OV-3; SNB-19; TK-10; UACC-257.
Holding throughout (experiment): growth of human tumour cells (NCI), 48 h

Turning to `CC(C)[Si](OC/C(=C/COC(C)(C)C)[C@H]1CC=C(C(=O)c2ccccc2N2CN(C)C(=O)N(C)C2)C1)(C(C)C)C(C)C`, the GI50 is 6.61 µM (inactive) in the experiment with 786-0; 4.29 µM (inactive) with CAKI-1; 15.7 µM (inactive) in the experiment on COLO 205; 15.9 µM (inactive) in the experiment with EKVX; 12.4 µM (inactive) in the experiment with HCC 2998; 12.3 µM in the experiment on HCT-15. Moreover, the GI50 in the experiment with M14 was 12.2 µM (inactive); with MDA-MB-435, 6.04 µM (inactive); in the experiment on MOLT-4, 0.366 µM (active); with Malme-3M, 7.94 µM (inactive); with NCI-H23, 15.2 µM (inactive); in the experiment on NCI-H460, 12.6 µM (inactive). Moreover, the GI50 in the experiment with OVCAR-4 is 13.8 µM (inactive); with SF-295, 12.9 µM (inactive); in the experiment with SF-539, 6.78 µM (inactive); in the experiment on SK-MEL-2, 13.6 µM (inactive); in the experiment with SK-OV-3, 15.6 µM (inactive); in the experiment on SNB-19, 12.1 µM (inactive). In addition, the GI50 is 10.1 µM (inactive) in the experiment with TK-10 and 6.28 µM (inactive) with UACC-257.

On to `O=C1CSC(c2cc3cc(Br)ccc3nc2Cl)N1c1ccc(F)c(Cl)c1` (stereo not given), for which the GI50 was 27.4 µM (inactive) in the experiment with 786-0; > 50 µM (inactive) in the experiment on CAKI-1; > 50 µM (inactive) in the experiment on COLO 205; 25.1 µM (inactive) in the experiment on EKVX; > 50 µM (inactive) in the experiment with HCC 2998; 33 µM in the experiment on HCT-15. Moreover, the GI50 in the experiment with M14 was > 50 µM (inactive); with MDA-MB-435 it was 25.1 µM (inactive); in the experiment with MOLT-4, 11.1 µM (inactive); in the experiment with Malme-3M it was > 50 µM (inactive); in the experiment with NCI-H23 it was > 50 µM (inactive); in the experiment with NCI-H460, 40.8 µM (inactive). Moreover, the GI50 is > 50 µM (inactive) with OVCAR-4; > 50 µM (inactive) in the experiment on SF-295; 17.3 µM (inactive) with SF-539; > 50 µM (inactive) in the experiment on SK-MEL-2; > 50 µM (inactive) in the experiment on SK-OV-3; > 50 µM (inactive) in the experiment with SNB-19. Besides, the GI50 with TK-10 and in the experiment on UACC-257 was > 50 µM (inactive) throughout.

On to `CN(C)CC1COC2Cc3ccccc3C1O2` (stereo not given), for which the GI50 in the experiment with 786-0 was > 100 µM (inactive); in the experiment on CAKI-1, > 100 µM (inactive); in the experiment with COLO 205 it was > 100 µM (inactive); in the experiment with EKVX, > 100 µM (inactive); with HCC 2998, > 100 µM (inactive); in the experiment with HCT-15, above 100 µM. For the same molecule, the GI50 with M14, with MDA-MB-435, in the experiment on MOLT-4, with Malme-3M, with NCI-H23 and with NCI-H460 was > 100 µM (inactive) each time. The GI50 in the experiment on OVCAR-4, in the experiment with SF-295, in the experiment on SF-539, in the experiment on SK-MEL-2, with SK-OV-3 and in the experiment on SNB-19 was > 100 µM (inactive) throughout. Besides, the GI50 in the experiment on TK-10 and in the experiment with UACC-257 was > 100 µM (inactive) in each case.

Take `Cc1ccc(NC(c2ccccc2)c2ccc3cccnc3c2O)cc1` (stereo not given): the GI50 is 3.61 µM (inactive) in the experiment on 786-0; 5.11 µM (inactive) with CAKI-1; 4.68 µM (inactive) in the experiment on COLO 205; 3.47 µM (inactive) with EKVX; 16.4 µM (inactive) with HCC 2998; 2.64 µM with HCT-15. Also, the GI50 in the experiment with M14 was 4.69 µM (inactive); in the experiment on MDA-MB-435, 5.87 µM (inactive); with MOLT-4 it was 2.37 µM (inactive); in the experiment with Malme-3M, 3.05 µM (inactive); with NCI-H23 it was 5.79 µM (inactive); in the experiment on NCI-H460, 2.58 µM (inactive). Moreover, the GI50 in the experiment on OVCAR-4 was 3.85 µM (inactive); with SF-295, 3.72 µM (inactive); in the experiment on SF-539 it was 2.33 µM (inactive); with SK-MEL-2, 7.5 µM (inactive); in the experiment on SK-OV-3, 7.91 µM (inactive); with SNB-19, 6.37 µM (inactive). Also, the GI50 was 5.22 µM (inactive) in the experiment on TK-10 and 9.79 µM (inactive) in the experiment on UACC-257.

As to `CC(C)(C)OC(=O)NC(Cc1ccccc1)C(=O)NC(Cc1ccccc1)C(=O)NCC(=O)OCc1ccccc1` (stereo not drawn) (Boc-Phe-Phe-Gly-OBn; configuration not given here), the GI50 is 17.1 µM (inactive) in the experiment on 786-0; 57.4 µM (inactive) with CAKI-1; 29.8 µM (inactive) with COLO 205; 45 µM (inactive) in the experiment with EKVX; 16.3 µM (inactive) in the experiment with HCC 2998; 17.9 µM in the experiment on HCT-15. Besides, the GI50 is 20.8 µM (inactive) in the experiment on M14; 8.36 µM (inactive) in the experiment with MDA-MB-435; 22.2 µM (inactive) in the experiment with MOLT-4; 44.5 µM (inactive) in the experiment with Malme-3M; 22.8 µM (inactive) with NCI-H23; 23 µM (inactive) with NCI-H460. The GI50 in the experiment with OVCAR-4 is 24.7 µM (inactive); with SF-295, > 10 µM (inactive); in the experiment with SF-539, 19 µM (inactive); in the experiment with SK-MEL-2 it was 33.6 µM (inactive); with SK-OV-3, 22.8 µM (inactive); with SNB-19, 35 µM (inactive). In addition, the GI50 was 19.7 µM (inactive) with TK-10 and > 100 µM (inactive) with UACC-257.

For the molecule `COc1ccc(CCC(=O)OC(C)[C@H](NC(=O)[C@@H](CC(C)C)N(C)C(=O)[C@@H]2CCCN2C(=O)C(C)O)C(=O)OCc2ccccc2)cc1` (stereo not given in full) (H-[ξLac]P[dNMeL][Thr(3ξ)](Propanoyl(3-(4-MeO-Ph)))-OBn), the GI50 is 35.2 µM (inactive) in the experiment with 786-0; > 100 µM (inactive) with CAKI-1; 19.5 µM (inactive) with COLO 205; 80.7 µM (inactive) in the experiment with EKVX; 40.4 µM (inactive) in the experiment on HCC 2998; 32.3 µM in the experiment on HCT-15. Besides, the GI50 with M14 was 16.9 µM (inactive); with MDA-MB-435, 21.8 µM (inactive); with MOLT-4, 24.3 µM (inactive); with Malme-3M it was 20.8 µM (inactive); in the experiment on NCI-H23 it was 41.4 µM (inactive); in the experiment with NCI-H460, 64.4 µM (inactive). The GI50 in the experiment with OVCAR-4 was 73.8 µM (inactive); in the experiment on SF-295, 35.2 µM (inactive); in the experiment with SF-539, 24.6 µM (inactive); with SK-MEL-2 it was 16.7 µM (inactive); in the experiment with SK-OV-3, 84.1 µM (inactive); in the experiment on SNB-19, 66.2 µM (inactive). The GI50 with TK-10 is 18.9 µM (inactive); in the experiment with UACC-257 it was 18.4 µM (inactive).

As to `O=C1Cc2c([nH]c3ccc([N+](=O)[O-])cc23)-c2ccccc2N1` [ALSTERPAULLONE], the GI50 was 0.406 µM (active) in the experiment with 786-0; 0.332 µM (active) in the experiment with CAKI-1; 0.235 µM (active) with COLO 205; 0.652 µM (active) in the experiment with EKVX; 0.914 µM (active) with HCC 2998; 0.237 µM in the experiment on HCT-15. Further, the GI50 was 0.453 µM (active) in the experiment with M14; 0.499 µM (active) in the experiment with MDA-MB-435; 0.312 µM (active) in the experiment with MOLT-4; 9.08 µM (inactive) in the experiment with Malme-3M; 0.557 µM (active) in the experiment on NCI-H23; 0.396 µM (active) in the experiment on NCI-H460. Also, the GI50 is 0.498 µM (active) with OVCAR-4; 0.92 µM (active) in the experiment on SF-295; 0.397 µM (active) in the experiment on SF-539; 0.713 µM (active) with SK-MEL-2; 2.3 µM (inactive) in the experiment on SK-OV-3; 0.478 µM (active) in the experiment on SNB-19. Also, the GI50 in the experiment on TK-10 was 0.757 µM (active); with UACC-257 it was 1.11 µM (active).

The values are drawn from ChEMBL document CHEMBL1201862, “PubChem BioAssay data set” (2004).
